In brackets after ≈: the same amount, converted by molar mass. Non-standard residues stand in square brackets, D forms with d. Residues, ends and D or L forms follow the SMILES beside them. *: point of attachment. Tetradecanoyl(3R-OH) = CCCCCCCCCCC[C@@H](O)CC(=O)*; Tetradecanoyl(3S-OH) = CCCCCCCCCCC[C@H](O)CC(=O)*

Data set [1] can be described thus: critical micelle concentration, Nile Red fluorescence. In kind it is physicochemical. Conditions: overnight equilibration, intersection of linear fits of fluorescence vs log concentration. The method, then:
Figure 4 CMC measurements of synthetic humimycin analogs 12R, 12S, 13R, and 13S. The CMC is the concentration at the intersection of the linear fits to the fluorescence intensity against log 10 concentration of peptide. Black circle: monomer; red circle: micelle.
The CMC of synthesized analogs 12R, 12S, 13R, and 13S was determined using the Nile Red fluorescence method, which takes advantage of the dye’s enhanced fluorescence emission in hydrophobic environments. A 500 μM stock solution of Nile Red was prepared in DMSO. Aliquots of 10 μL of this stock solution were added to each well and kept in the dark. Peptide solutions (200 μL) at various concentrations were then added to the well and allowed to equilibrate with the Nile Red overnight. Fluorescence emission spectra were recorded from 485 nm to 636 nm on a SpectraMax i3 spectrofluorometer with an excitation and emission bandwidth 9 nm and 15 nm, respectively. The ratio of the emission intensity was calculated for each peptide concentration and plotted against the logarithm of the peptide concentration. The CMC was determined from the intersection of the linear fits to the data points below and above the transition region in the plot. Tween-20 was used as positive control.

The next data set relates to S. aureus strain 4-157. Conditions: broth microdilution, triplicate; isolate 4-157, no resistance profile listed. The source says:
(§1) The bacterial strains used in this study included S. aureus ATCC 29213 and ATCC 43300, B. subtilis ATCC […], E. coli ATCC 25922, P. aeruginosa ATCC 27853, and S. enterica serovar Typhimurium ATCC 14028, all of which were purchased from Cedarlane, Canada. Additionally, a collection of 19 S. aureus strains, ranging from antibiotic-sensitive to multidrug-resistant, and originating from clinical intramammary infections (IMI), was selected from the Mastitis Pathogen Culture Collection of the Canadian Bovine Mastitis Research Network (Université de Montréal, St-Hyacinthe, QC, Canada). These strains, previously used in other studies, were also included in this work. S. aureus ATCC 29213 and B. subtilis ATCC 6633 were cultured in Tryptic Soy Broth (TSB) (Difco^TM, Becton, Dickenson & Company, Spark, MD, USA). E. coli ATCC 25922 and P. aeruginosa ATCC 27853 were grown in Luria–Bertani (LB) broth (Fisher Scientific, Fair Lawn, NJ, USA). S. enterica serovar Typhimurium ATCC 14028 was propagated in Nutrient Broth (NB) (Oxoid, Basingstoke, UK). All bacterial cultures were incubated overnight at 37 °C before use and during the performance of assays.
(§2) MIC assays were performed using the broth microdilution method in 96-well plates. Analogs were serially diluted two-fold from stock solutions. The plates were incubated overnight at 37 °C and bacterial growth was monitored by measuring the absorbance at 595 nm over 18–20 h and the assay was performed in triplicate.
In general terms: Dilution methods test growth across graded concentrations, often in twofold steps.

Another data set deals with S. aureus strain 4-170. Particulars: broth microdilution, triplicate; isolate 4-170, no resistance profile listed.
Description: as §1, §2

The next data set deals with S. aureus strain 4-133. Particulars: broth microdilution, triplicate; isolate 4-133, resistance PEN-CEF-CTX-FOX-CIP-CHL-KAN-GEN.
Description: as §1, §2

For the next data set, the system named is S. aureus strain 4-131. Particulars: broth microdilution, triplicate; isolate 4-131, no resistance profile listed.
Description: as §1, §2

A further data set concerns S. aureus strain A-165. Particulars: broth microdilution, triplicate; isolate A-165, resistance PEN-CEF-CTX-FOX-CIP-CC-KAN-GEN-STR-P/N.
Description: as §1, §2

The next data set has as its system S. aureus strain 4-121. Particulars: broth microdilution, triplicate; isolate 4-121, no resistance profile listed.
Description: as §1, §2

A further data set has as its system human red blood cells. In kind it is cell-based. Conditions: red cells of human, 1 h. As for the experimental part: Figure 3 The hemolytic activity of synthetic humimycin analogs 12R, 12S, 13R, and 13S on human erythrocytes. Positive control: 0.2% Triton X-100 in PBS, negative control: PBS. The data represent the mean ± standard deviation of three independent experiments.
Hemolytic potential of the humimycin analogs 12R, 12S, 13R, and 13S, was evaluated by exposing fresh, uninfected red blood cells (RBCs) to 16 two-fold serial dilutions of each analog, ranging from 512 μg/mL to 0.015 μg/mL, in RPMI-1640 medium supplemented with HEPES and containing a maximum of 0.5% dimethyl sulfoxide (DMSO). The assay was performed in round-bottom 96-well plates at a final hematocrit of 1%. Mock control wells contained RBCs in RPMI-1640 with 1% DMSO, while 100% lysis control wells contained RBCs in RPMI-1640 with 1% DMSO and 1% Triton X-100. The plates were incubated for 1 h at 37 °C under a gassed atmosphere. Following incubation, the plates were centrifuged at 800× g for 5 min, and 100 μL of supernatant from each well was transferred to a clean flat-bottom 96-well plate. The absorbance of released hemoglobin in the supernatant was measured at 405 nm using a VICTOR plate reader (PerkinElmer). The percentage of hemolysis was calculated by comparing the absorbance of the supernatant from compound-treated RBCs to that of the mock control and 100% lysis control wells. All assays were performed in triplicates.

The next data set relates to S. aureus ATCC 29213. Put plainly: growth kinetics. In kind it is cell-based, Staphylococcus aureus. Conditions: TSB, 37 °C, 6 h, OD 595 nm every 2 h, peptide at MIC, three independent experiments. As for the experimental part:
Figure 2 Growth kinetics of S. aureus ATCC 29213 in the presence of humimycin analogs 12R, 12S, 13R, and 13S. Cultures of S. aureus were treated with various concentrations (2 × MIC, MIC, ½ × MIC, and ¼ × MIC) of the peptides and their growth was monitored by measuring the optical density at 595 nm. The positive control consisted of an untreated S. aureus culture, while the negative control contained only the growth medium without bacterial inoculation. The data represents the mean ± standard deviation of three independent experiments.
The growth kinetics of S. aureus ATCC 29213 in presence of humimycin analogs 12R, 12S, 13R, and 13S was assessed on S. aureus cultures in TSB at 37 °C in the stationary phase. The overnight culture was then diluted 1:100 in fresh TSB to achieve an initial optical density at 600 nm (OD600) of approximately 0.05. Humimycin analogs were prepared at concentrations corresponding to 0.5×, 1×, and 2× the MIC. S. aureus cultures without any analog served as the positive control and culture media was the negative control. The treated and control cultures were incubated at 37 °C for a total duration of 6 h. Absorbance readings at 595 nm were recorded every 2 h using a microplate reader to monitor the bacterial growth. The OD595 values were then plotted against time to generate bacterial growth curves. To ensure reproducibility, all experiments were performed in triplicate, with results expressed in a graph as mean ± standard deviation.

Usually MIC stands for the smallest concentration in the dilution series that meets the test's criterion for growth inhibition. A high value points to a need for much substance. What is called HC50 is the concentration that lyses half of the red blood cells. For `CCCCCCCCCCC[C@@H](O)CC(=O)N[C@@H](Cc1c[nH]c2ccccc12)C(=O)N[C@@H](CO)C(=O)N[C@H](Cc1c[nH]c2ccccc12)C(=O)N[C@@H](Cc1ccccc1)C(=O)N[C@@H](C(=O)N[C@H](C(=O)N[C@H](C(=O)O)C(C)C)C(C)C)[C@H](C)O` [12R] ({Tetradecanoyl(3R-OH)}-WS[dW]F[dT]VV-OH), in data set [1], the CMC entry is given as “approximately 60 μg/mL”. Moreover, the minimum inhibitory concentration (MIC) with S. aureus strain 4-157 is 16 µg/mL (≈ 13.9 µM); against S. aureus strain 4-170, 4 µg/mL (≈ 3.48 µM); with S. aureus strain 4-133, 256 µg/mL (≈ 223 µM); with S. aureus strain 4-131, more than 256 µg/mL; in the data set on S. aureus strain A-165 it was 256 µg/mL (≈ 223 µM); with S. aureus strain 4-121, 32 µg/mL (≈ 27.8 µM). Further, the concentration for 50% haemolysis (HC50) in the data set with human red blood cells worked out at 44.8 µg/mL. In the data set on S. aureus ATCC 29213, the “effect on bacterial growth at MIC” value is listed as “effectively inhibited the growth”.
For `CCCCCCCCCCC[C@H](O)CC(=O)N[C@@H](Cc1c[nH]c2ccccc12)C(=O)N[C@@H](CO)C(=O)N[C@H](Cc1c[nH]c2ccccc12)C(=O)N[C@@H](Cc1ccccc1)C(=O)N[C@@H](C(=O)N[C@H](C(=O)N[C@H](C(=O)O)C(C)C)C(C)C)[C@H](C)O` [12S] ({Tetradecanoyl(3S-OH)}-WS[dW]F[dT]VV-OH), in data set [1], the CMC was approximately 70 µg/mL. Moreover, the MIC in the data set on S. aureus strain 4-157 is listed as 16 µg/mL (≈ 13.9 µM); in the data set on S. aureus strain 4-170 it was 8 µg/mL (≈ 6.95 µM); in the data set on S. aureus strain 4-133 it was 256 µg/mL (≈ 223 µM); in the data set on S. aureus strain 4-131, more than 256 µg/mL; with S. aureus strain A-165 it was 256 µg/mL (≈ 223 µM); with S. aureus strain 4-121, 32 µg/mL (≈ 27.8 µM). In the data set on human red blood cells, this molecule registered an HC50 of 60.8 µg/mL. In addition, the “effect on bacterial growth at MIC” value with S. aureus ATCC 29213 is reported as “effectively inhibited the growth”.
Regarding `CCCCCCCCCCC[C@@H](O)CC(=O)N[C@@H](Cc1c[nH]c2ccccc12)C(=O)N[C@@H](CO)C(=O)N[C@H](Cc1c[nH]c2ccccc12)C(=O)N[C@@H](Cc1ccccc1)C(=O)N[C@@H](C(=O)N[C@@H](C)C(=O)N[C@H](C(=O)O)C(C)C)[C@H](C)O` [13R] ({Tetradecanoyl(3R-OH)}-WS[dW]F[dT]AV-OH), the CMC in data set [1] is approximately 12 µg/mL. Also, the MIC was 32 µg/mL (≈ 28.5 µM) against S. aureus strain 4-157; 8 µg/mL (≈ 7.13 µM) against S. aureus strain 4-170; more than 256 µg/mL in the data set with S. aureus strain 4-133; more than 256 µg/mL in the data set with S. aureus strain 4-131; more than 256 µg/mL against S. aureus strain A-165; 256 µg/mL (≈ 228 µM) with S. aureus strain 4-121. The HC50 in the data set with human red blood cells came to 76.8 µg/mL. Further, in the data set on S. aureus ATCC 29213, the “effect on bacterial growth at MIC” value is reported as “effectively inhibited the growth”.
Consider `CCCCCCCCCCC[C@H](O)CC(=O)N[C@@H](Cc1c[nH]c2ccccc12)C(=O)N[C@@H](CO)C(=O)N[C@H](Cc1c[nH]c2ccccc12)C(=O)N[C@@H](Cc1ccccc1)C(=O)N[C@@H](C(=O)N[C@@H](C)C(=O)N[C@H](C(=O)O)C(C)C)[C@H](C)O` [13S] ({Tetradecanoyl(3S-OH)}-WS[dW]F[dT]AV-OH), for which, in data set [1], the CMC was approximately 40 µg/mL. Further, the MIC against S. aureus strain 4-157 is on record as 32 µg/mL (≈ 28.5 µM); with S. aureus strain 4-170, 8 µg/mL (≈ 7.13 µM); against S. aureus strain 4-133, more than 256 µg/mL; in the data set with S. aureus strain 4-131, more than 256 µg/mL; with S. aureus strain A-165 it was more than 256 µg/mL; with S. aureus strain 4-121, 256 µg/mL (≈ 228 µM). Besides, the HC50 in the data set with human red blood cells was 48 µg/mL. For the same molecule, the “effect on bacterial growth at MIC” value with S. aureus ATCC 29213 was “effectively inhibited the growth”.
